Values joined by “and” are separate entries in the source; they are usually repeats but may differ in a detail not shown here. Identical values can stand only once. “Also recorded” adds a separate entry of the source.
Test system: aldosterone + salt treated uninephrectomized rats
Assay: Assay C, further aldosterone infusion study: radiotelemetrized arterial (systolic) blood pressure
Assay type: in vivo, Male Sprague-Dawley rats
Details: for Systolic Blood Pressure (mmHg): mean ± SEM of values every 5 min over 24-hour period
Protocol: Assay C: Further In Vivo Aldosterone Infusion Study
The procedure of Assay B was expanded upon in a further study. […] Myocardial tissue from animals in each treatment group was examined after 7, 14, or 30 days of treatment.
Male Sprague-Dawley rats, weighing 230 to 250 g, (Harlan Sprague-Dawley Industries, Indianapolis, IN) were housed in a room 12-hours light/12-hours dark daily cycle at an ambient temperature of 22±1° C. (n=96). Animals were allowed one week to adjust after arrival and had free access to TEKLAD 22/5 rodent diet (Harlan TEKLAD, Madison, Wis.) and tap water until the initiation of the experiment.
Potassium chloride supplementation was added to the saline solution in order to prevent the potential hypokalemia associated with aldosterone excess.
At the time of the surgery, an Alzet 2002 osmotic minipump (Alza Corp., Palo Alto, Calif.) containing either vehicle (9% ethanol/87% propylene glycol/4% dH2O) or 1.0 mg/mL d-aldosterone (Sigma Chemical, St. Louis, Mo.) was inserted subcutaneously at the nape of the neck. Aldosterone was administered at a dose of 0.75 µg/hour. […] Animals were sacrificed from each group (n=8-13) after 7, 14, or 30 days of treatment.
Animals to be sacrificed after 7 or 14 days of treatment were uninephrectomized and implanted with an Alzet minipump. Animals treated for 30 days were uninephrectomized, fitted for Alzet minipumps, and implanted with radio telemetry units (model #TA11PA-C40, Data Sciences Inc., St. Paul, Minn.) according to the following procedure. Animals were anesthetized with 5% isoflurane (SOLVAY Animal Health Inc., Mendota Heights, Minn.), which was delivered in O2 using a VMS anesthesia instrument (Matrix Medical, Inc., Orchard Park, N.Y.). Anesthesia was maintained with 1-2% isoflurane throughout the surgical procedure. The surgery site was clipped, scrubbed with nolvasan, and sprayed with betadine. A rostral-caudal incision was made through the skin from the base of the rib cage to the pubic region using a #11 scalpel blade. A second incision was made through the muscles of the abdominal wall to expose the peritoneal cavity. The […], renal artery and vein of the left kidney were isolated, tied off with 4-0 silk, and the kidney excised and discarded. Organs were carefully displaced with tissue retractors in order to expose the abdominal aorta. A 1.5 cm segment just rostral to the bifurcation of the abdominal aorta into the iliac arteries was cleared of excessive connective tissue and 4-0 silk was used to make an anchor adjacent to the aorta. A microvascular clip was then placed at both ends of the cleaned region to stop excessive blood flow. Using a bent, 21 gauge needle, the abdominal aorta was penetrated. The cannula of the radio telemetry unit was inserted and stabilized in the aorta using the 4-0 silk anchor. Organs were repositioned and the telemetry unit was placed over the organs. Using a non-interrupted suture pattern with 4-0 silk, the abdominal wall was closed, and the skin was subsequently closed using a 4-0 silk in an interrupted suture pattern. Animals were injected around the sutures with 100 μL of the anesthetic Marcaine HCl (Sanofi Winthrop Pharmaceuticals, New York, N.Y.) and given an injection (i.m.) of the antibiotic Mandol (Eli Lilly & Co., Indianapolis, Ind.). Post-operative care included monitoring the animals on a heating pad during recovery from anesthesia until sternal recumbency was reestablished. Animals were monitored daily for signs of distress and infection at the surgical site. Animals displaying continued discomfort after surgery were treated with 0.1-0.5 mg/kg, s.c. Buphrenorphine (Rickett & Colman Pharmaceuticals, Inc. Richmond, Va.). Animals were then placed on tap water and TEKLAD 22/5 rodent diet (Harlan TEKLAD, Madison, Wis.).
Radiotelemetrized arterial blood pressure was calculated with the […]

[1] = aldosterone + salt, uninephrectomized rats, up to 30 days, eplerenone 100 mg/kg/day

| Compound | Systolic Blood Pressure (mmHg) (Day 3) | Systolic Blood Pressure (mmHg) (Day 4) | Systolic Blood Pressure (mmHg) (Day 5) | Systolic Blood Pressure (mmHg) (Day 6) | Systolic Blood Pressure (mmHg) (Day 7) | Systolic Blood Pressure (mmHg) (Day 8) | Systolic Blood Pressure (mmHg) (Day 9) | Systolic Blood Pressure (mmHg) (Day 10) | Systolic Blood Pressure (mmHg) (Day 11) | Systolic Blood Pressure (mmHg) (Day 12) | Systolic Blood Pressure (mmHg) (Day 13) | Systolic Blood Pressure (mmHg) (Day 14) | Systolic Blood Pressure (mmHg) (Day 15) | Systolic Blood Pressure (mmHg) (Day 16) | Systolic Blood Pressure (mmHg) (Day 17) | Systolic Blood Pressure (mmHg) (Day 18) | Systolic Blood Pressure (mmHg) (Day 19) | Systolic Blood Pressure (mmHg) (Day 20) | Systolic Blood Pressure (mmHg) (Day 21) | Systolic Blood Pressure (mmHg) (Day 22) | other results |
| --- | --- | --- | --- | --- | --- | --- | --- | --- | --- | --- | --- | --- | --- | --- | --- | --- | --- | --- | --- | --- | --- |
| C[C@]12CCC(=O)C=C1CC[C@@H]1[C@@H]2[C@@H](O)C[C@]2(C=O)[C@@H](C(=O)CO)CC[C@@H]12 [Aldosterone] | 132 ± 6 mmHg | 133 ± 4 mmHg | 137 ± 4 mmHg | 148 ± 5 mmHg | 155 ± 5 mmHg | 156 ± 4 mmHg | 164 ± 5 mmHg | 168 ± 6 mmHg | 171 ± 6 mmHg | 178 ± 6 mmHg | 182 ± 6 mmHg | 182 ± 6 mmHg | 181 ± 5 mmHg | 187 ± 6 mmHg | 195 ± 7 mmHg | 196 ± 6 mmHg | 200 ± 6 mmHg | 203 ± 5 mmHg | 208 ± 4 mmHg | 209 ± 4 mmHg | Systolic Blood Pressure (Day 3, individual rats, 30-day protocol, listed as Aldosterone + salt): 116 mmHg and 152 mmHg and 115 mmHg and 127 mmHg and 143 mmHg and 122 mmHg and 124 mmHg and 159 mmHg; Systolic Blood Pressure (Day 4, individual rats, 30-day protocol, listed as Aldosterone + salt): 120 mmHg and 149 mmHg and 122 mmHg and 134 mmHg and 129 mmHg and 135 mmHg and 125 mmHg and 152 mmHg; Systolic Blood Pressure (Day 5, individual rats, 30-day protocol, listed as Aldosterone + salt): 126 mmHg and 158 mmHg and 124 mmHg and 142 mmHg and 129 mmHg and 137 mmHg and 128 mmHg and 151 mmHg; Systolic Blood Pressure (Day 6, individual rats, 30-day protocol, listed as Aldosterone + salt): 132 mmHg and 170 mmHg and 136 mmHg and 157 mmHg and 144 mmHg and 149 mmHg and 135 mmHg and 158 mmHg; Systolic Blood Pressure (Day 7, individual rats, 30-day protocol, listed as Aldosterone + salt): 140 mmHg and 179 mmHg and 139 mmHg and 165 mmHg (2×) and 153 mmHg and 154 mmHg and 145 mmHg; Systolic Blood Pressure (Day 8, individual rats, 30-day protocol, listed as Aldosterone + salt): 145 mmHg and 182 mmHg and 143 mmHg and 160 mmHg and 158 mmHg and 154 mmHg and 146 mmHg and 163 mmHg; Systolic Blood Pressure (Day 9, individual rats, 30-day protocol, listed as Aldosterone + salt): 150 mmHg and 191 mmHg and 148 mmHg and 172 mmHg (2×) and 159 mmHg and 151 mmHg and 169 mmHg; Systolic Blood Pressure (Day 10, individual rats, 30-day protocol, listed as Aldosterone + salt): 156 mmHg and 196 mmHg and 149 mmHg and 175 mmHg (2×) and 165 mmHg and 151 mmHg and 172 mmHg; Systolic Blood Pressure (Day 11, individual rats, 30-day protocol, listed as Aldosterone + salt): 154 mmHg and 201 mmHg and 155 mmHg (2×) and 178 mmHg and 181 mmHg and 163 mmHg and 175 mmHg; Systolic Blood Pressure (Day 12, individual rats, 30-day protocol, listed as Aldosterone + salt): 159 mmHg and 207 mmHg and 161 mmHg and 190 mmHg (2×) and 186 mmHg and 170 mmHg and 163 mmHg; Systolic Blood Pressure (Day 13, individual rats, 30-day protocol, listed as Aldosterone + salt): 161 mmHg and 210 mmHg and 166 mmHg (2×) and 196 mmHg and 191 mmHg and 172 mmHg and 194 mmHg; Systolic Blood Pressure (Day 14, individual rats, 30-day protocol, listed as Aldosterone + salt): 164 mmHg and 208 mmHg and 170 mmHg and 204 mmHg and 192 mmHg (2×) and 181 mmHg and 159 mmHg and 172 mmHg; Systolic Blood Pressure (Day 15, individual rats, 30-day protocol, listed as Aldosterone + salt): 171 mmHg; Systolic Blood Pressure (mmHg) (Day 23): 208 ± 4 mmHg; Systolic Blood Pressure (mmHg) (Day 24): 210 ± 3 mmHg; Systolic Blood Pressure (mmHg) (Day 25): 210 ± 4 mmHg; Systolic Blood Pressure (mmHg) (Day 26): 210 ± 3 mmHg; Systolic Blood Pressure [1]: induced severe hypertension; also recorded: progressive increase in blood pressure with time |
| COC(=O)[C@@H]1CC2=CC(=O)CC[C@]2(C)[C@@]23O[C@@H]2C[C@@]2(C)[C@@H](CC[C@@]24CCC(=O)O4)[C@H]13 [Eplerenone] | 126 ± 1 mmHg | 130 ± 2 mmHg | 132 ± 2 mmHg | 139 ± 3 mmHg | 143 ± 3 mmHg | 142 ± 3 mmHg | 142 ± 3 mmHg | 142 ± 2 mmHg | 143 ± 3 mmHg | 145 ± 3 mmHg | 147 ± 3 mmHg | 150 ± 4 mmHg | 148 ± 4 mmHg | 150 ± 4 mmHg | 154 ± 5 mmHg | 157 ± 5 mmHg | 160 ± 5 mmHg | 160 ± 5 mmHg | 165 ± 6 mmHg | 167 ± 6 mmHg | Systolic Blood Pressure (Day 3, individual rats, 30-day protocol, listed as Eplerenone + aldosterone + salt): 123 mmHg and 126 mmHg (2×) and 130 mmHg (2×) and 128 mmHg and 119 mmHg and 125 mmHg (2×); Systolic Blood Pressure (Day 4, individual rats, 30-day protocol, listed as Eplerenone + aldosterone + salt): 130 mmHg (2×) and 128 mmHg (2×) and 131 mmHg and 139 mmHg and 122 mmHg and 126 mmHg and 134 mmHg; Systolic Blood Pressure (Day 5, individual rats, 30-day protocol, listed as Eplerenone + aldosterone + salt): 132 mmHg (2×) and 134 mmHg and 143 mmHg and 123 mmHg and 127 mmHg (2×) and 133 mmHg and 142 mmHg; Systolic Blood Pressure (Day 6, individual rats, 30-day protocol, listed as Eplerenone + aldosterone + salt): 133 mmHg (2×) and 142 mmHg and 136 mmHg and 152 mmHg and 126 mmHg and 137 mmHg and 140 mmHg and 150 mmHg; Systolic Blood Pressure (Day 7, individual rats, 30-day protocol, listed as Eplerenone + aldosterone + salt): 140 mmHg (3×) and 142 mmHg and 143 mmHg and 156 mmHg (2×) and 132 mmHg and 141 mmHg; Systolic Blood Pressure (Day 8, individual rats, 30-day protocol, listed as Eplerenone + aldosterone + salt): 142 mmHg and 146 mmHg and 141 mmHg and 156 mmHg and 131 mmHg and 138 mmHg (2×) and 139 mmHg and 152 mmHg; Systolic Blood Pressure (Day 9, individual rats, 30-day protocol, listed as Eplerenone + aldosterone + salt): 142 mmHg and 146 mmHg and 139 mmHg and 154 mmHg and 130 mmHg and 133 mmHg and 137 mmHg and 141 mmHg and 151 mmHg; Systolic Blood Pressure (Day 10, individual rats, 30-day protocol, listed as Eplerenone + aldosterone + salt): 143 mmHg (2×) and 138 mmHg and 158 mmHg and 134 mmHg and 136 mmHg and 139 mmHg and 142 mmHg and 149 mmHg; Systolic Blood Pressure (Day 11, individual rats, 30-day protocol, listed as Eplerenone + aldosterone + salt): 145 mmHg (2×) and 139 mmHg and 138 mmHg and 160 mmHg and 136 mmHg and 137 mmHg and 140 mmHg and 152 mmHg; Systolic Blood Pressure (Day 12, individual rats, 30-day protocol, listed as Eplerenone + aldosterone + salt): 147 mmHg and 140 mmHg (2×) and 139 mmHg (2×) and 165 mmHg and 137 mmHg and 148 mmHg and 154 mmHg; Systolic Blood Pressure (Day 13, individual rats, 30-day protocol, listed as Eplerenone + aldosterone + salt): 148 mmHg and 144 mmHg and 137 mmHg and 170 mmHg and 140 mmHg (3×) and 149 mmHg; Systolic Blood Pressure (mmHg) (Day 23): 172 ± 6 mmHg; Systolic Blood Pressure (mmHg) (Day 25): 176 ± 6 mmHg; Systolic Blood Pressure (mmHg) (Day 26): 180 ± 7 mmHg; Systolic Blood Pressure [1]: significantly reduced at days 8-30 |

Reference: patent US6716829B2, “Aldosterone antagonist and cyclooxygenase-2 inhibitor combination therapy to prevent or treat inflammation-related cardiovascular disorders” (Pharmacia Corporation, priority 2000, dated 2004)
